Measured values taken from patent US20150087610A1, “Method of Modifying Fertility” (Monell Chemical Senses Center, priority 2012, published 2015).
Entries after “also recorded” stand apart in the source; their conditions may differ.

Tests used:
[1] = tested on: sperm isolated from the Gnat3−/−mutant mice; test: Calcium imaging of sperm from Gnat3−/− mutant mice; assay type: cell-based, mouse; conditions: 2 mM
Experimental: (§1) Eight adult male mice of each genotype: C57BL/6 and Gnat^−/− mice, were sacrificed, and the testis and caudal epididymis were immediately removed and transferred into HS solution containing (mM): 135 NaCl, 5 KCl, 2 CaCl2, 1 MgCl2, 30 Hepes, 10 glucose, 10 lactic acid, and 1 pyruvic acid (pH adjusted to 7.4 with NaOH) (Xia et al., 2007). For isolation of spermatids, seminiferous tubules from mouse testicle were dissected out and placed in a […] containing 3 ml of HS medium. The tissue was finely minced and gently triturated with a fire-polished pipette, and the mixture was filtered with a 100 μm nylon cell strainer (BD Falcon, Bedford, Mass.). The dissociated cells were collected in a 1.5 ml plastic tube, and washed once in HS medium by centrifugation at 300 g for 4 min and resuspended in HS medium.
(§2) For isolation of epididymal spermatozoa, three incisions were made to the caudal epididymis, which was incubated in a 1.5-ml tube containing 1 ml of HS medium and 5 mg/ml bovine serum albumin (BSA) in a 5% CO2 incubator at 37° C. for 20 minutes (Xia et al., 2007). Sperm cells released into the medium were collected from top 0.1 ml, which were adjusted to 1×10^7 cells/ml HS medium.
(§3) Mouse spermatogenic cells were loaded with 5 μM acetoxymethylester of Fura-2 (Fora-2/AM) and 80 μg/ml pluronic F127 (Molecular Probes, Eugene, Oreg.) and transferred onto coverslips (22×60 mm, No. 0, Thomas Scientific Co.) for at least 1 hour at room temperature. The coverslip with spermatogenic cells was mounted in a recording chamber and superfused with HS or HS containing tasting compounds or the bitter blocker probenecid (Sigma-Aldrich, St. Louis, Mo.) via a valve controller (VC-8, Warner, USA).
(§4) Imaging of calcium responses was conducted as previously described (Gomez et al, 2005). Stimulation duration was 30 seconds and perfusion rate was 0.8 ml/min. Cells were excited at 340 nm and 380 nm and signals at 510 nm were captured by a cooled CCD camera. The change in fluorescence ratio (F=F340/F380) was recorded for regions-of-interest drawn on the cells.

mouse spermatids = test: Calcium imaging of mouse spermatids with bitter tastants; assay type: cell-based; conditions: for cells responding with increased intracellular calcium: 29 cells; for calcium response in the principal piece: compared with acrosome and midpiece; for increase in intracellular calcium, acrosome versus midpiece: subcellular areas; for number of cells responding: out of 29 cells
Experimental: as §1, §3, §4
(§5) To analyze the dose-dependent calcium responses, the response intensity (FN) was normalized and expressed as ΔF/F0 value: ΔF/F0=(F−F0)/F0. Here F0 is the fluorescence at the beginning of stimulation, i.e., time 0, and F is the peak fluorescence ratio evoked by the stimulation. Dose-response curves and EC50 values were generated based on the normalized responses using the software Origins by nonlinear regression.

epididymal sperm cells = test: Calcium imaging of mouse epididymal sperm cells with bitter tastants; assay type: cell-based; conditions: for calcium responses from the principal pieces / # CELLS RESPONDED / amplitudes of the responses from the acrosome and midpiece: epididymal sperm; for cells responding with calcium responses: 49 cells; for amplitudes of the responses from the acrosome and midpiece: subcellular areas
Experimental: as §2, §3, §4, §5

human Tas2r38 = human Tas2r38 (Homo sapiens, UniProt P59533); conditions: cited from earlier work
C57B/6L wild-type sperm = test: Bitter blocker probenecid on calcium responses of wild-type mouse sperm; assay type: cell-based; conditions: 300 μM PTC alone
Experimental: as §3, §4
To confirm whether the germ cells' responses to bitter tastants were mediated by the bitter taste receptors, we examined the effect of the bitter taste receptor blocker probenecid (Greene et al, 2001) and nullification of the α-gustducin gene in Gnat3 α-gustducin knockout mice described in Wong et al, 1996. Probenecid is known to inhibit the responses of human T2R16, 38 and 43 to salicin, PTC and PROP, and aloin, but not that of T2R31 to saccharin (Greene et al, 2011).

[2] = spermatids, response profile 1, total 29 cells
[3] = spermatids, response profile 3, total 29 cells
[4] = spermatids, response profile 5, total 29 cells
[5] = FIG. 6, epididymal sperm Cell 1
[6] = FIG. 6, epididymal sperm Cell 3
[7] = FIG. 6, epididymal sperm Cell 4
[8] = response profile 1, total 49 cells
[9] = response profile 2, total 49 cells
[10] = response profile 3, total 49 cells
[11] = response profile 4, total 49 cells
[12] = response profile 5, total 49 cells
[13] = response profile 7, total 49 cells
[14] = response profile 8, total 49 cells
[15] = response profile 10, total 49 cells
[16] = spermatids, response profile 2, total 29 cells
[17] = spermatids, response profile 6, total 29 cells
[18] = response profile 6, total 49 cells
[19] = response profile 11, total 49 cells
[20] = spermatids, response profile 4, total 29 cells
[21] = FIG. 6, epididymal sperm Cell 5
[22] = response profile 9, total 49 cells

| Structure (SMILES) | calcium response of Gnat3−/− sperm [1] | cells responding with increased intracellular calcium (mouse spermatids; spermatids) [%] | # CELLS RESPONDED (mouse spermatids; [2]) | # CELLS RESPONDED (mouse spermatids; [3]) | calcium response of individual cell (epididymal sperm cells; [5]) | calcium response of individual cell (epididymal sperm cells; [7]) | calcium responses from the principal pieces (epididymal sperm cells) | cells responding with calcium responses (epididymal sperm cells; epididymal sperm cells) | # CELLS RESPONDED (epididymal sperm cells; [8]) | # CELLS RESPONDED (epididymal sperm cells; [9]) | # CELLS RESPONDED (epididymal sperm cells; [10]) | # CELLS RESPONDED (epididymal sperm cells; [11]) | # CELLS RESPONDED (epididymal sperm cells; [12]) | # CELLS RESPONDED (epididymal sperm cells; [13]) | # CELLS RESPONDED (epididymal sperm cells; [14]) | amplitudes of the responses from the acrosome and midpiece (epididymal sperm cells) | calcium response in the principal piece (mouse spermatids; spermatids) | # CELLS RESPONDED (mouse spermatids; [16]) | increase in intracellular calcium, acrosome versus midpiece (mouse spermatids; spermatids) | # CELLS RESPONDED (epididymal sperm cells; [18]) | further results |
| --- | --- | --- | --- | --- | --- | --- | --- | --- | --- | --- | --- | --- | --- | --- | --- | --- | --- | --- | --- | --- | --- |
| Nc1ncnc2c1ncn2[C@@H]1O[C@H](COP(=O)(O)OP(=O)(O)OP(=O)(O)O)[C@@H](O)[C@H]1O [ATP] | normal; also recorded: did respond | – | – | – | – | – | – | – | – | – | – | – | – | – | – | – | – | – | – | – | – |
| CCCc1cc(=O)[nH]c(=S)[nH]1 [PROP, 6-propyl-2 thiouracil] | unresponsive; also recorded: did not respond | 27.6 | 3 | 1 | responded | responded weakly | mostly undetectable | about 61.2% | 4 | 13 | 1 | 1 | 4 | 1 | 1 | equally strong | – | – | – | – | EC50 (mouse spermatids; mouse spermatids, Fura-2 calcium imaging, normalized ΔF/F0, read-out: EC50 of calcium response): 24 ± 12 µM; # CELLS RESPONDED (mouse spermatids; [4]): 1; # CELLS RESPONDED (mouse spermatids; spermatids, response profile 9, total 29 cells): 3; calcium response at low concentrations (mouse spermatids; spermatids, 0.01, 0.1 and 1 μM): No responses; calcium response of individual cell (epididymal sperm cells; [6]): weakly; # CELLS RESPONDED (epididymal sperm cells; [15]): 5; EC50 (human Tas2r38; four responding variants of the receptor): 2 to 4 µM; response of receptor variants (human Tas2r38; two of six variants): unresponsive |
| NC(=S)Nc1ccccc1 [PTC, N-phenylthiourea] | unresponsive; also recorded: did not respond | – | 3 | 1 | responded | – | mostly undetectable | – | 4 | 13 | – | 1 | – | 1 | 1 | equally strong | detectable but much smaller | 1 | much larger in the acrosome than in the midpiece | 1 | # CELLS RESPONDED (mouse spermatids; [17]): 1; # CELLS RESPONDED (mouse spermatids; spermatids, response profile 10, total 29 cells): 3; # CELLS RESPONDED (epididymal sperm cells; [19]): 1; increase in the intracellular calcium concentration (C57B/6L wild-type sperm): significant |
| C[C@@H]1C[C@@H]([C@H](O)CC2CC(=O)NC(=O)C2)C(=O)[C@@H](C)C1 [cycloheximide] | did not respond | 62.1 | 3 | 1 | responded | responded weakly | mostly undetectable | 93.9% | 4 | 13 | 1 | 1 | 4 | 1 | – | equally strong | – | 1 | – | 1 | number of cells responding (mouse spermatids; spermatids): 18; # CELLS RESPONDED (mouse spermatids; [20]): 7; # CELLS RESPONDED (mouse spermatids; [4]): 1; # CELLS RESPONDED (mouse spermatids; spermatids, response profile 7, total 29 cells): 5; calcium response of individual cell (epididymal sperm cells; FIG. 6, epididymal sperm Cell 2): responded only; calcium response of individual cell (epididymal sperm cells; [6]): responded; calcium response of individual cell (epididymal sperm cells; [21]): responded weakly; number of cells responding (epididymal sperm cells; epididymal sperm cells, out of 49 cells): 46; # CELLS RESPONDED (epididymal sperm cells; [22]): 1; # CELLS RESPONDED (epididymal sperm cells; [15]): 5; # CELLS RESPONDED (epididymal sperm cells; response profile 12, total 49 cells): 15; calcium response of Gnat3−/− sperm ([1]; listed as cyclohexmide): unresponsive |
| CC[N+](CC)(CC(=O)Nc1c(C)cccc1C)Cc1ccccc1 [denatonium] | unresponsive; also recorded: did not respond | 55.2 | 3 | – | responded | responded weakly | mostly undetectable | ~53.1% | 4 | 13 | 1 | – | 4 | – | 1 | equally strong | detectable but much smaller | 1 | much larger in the acrosome than in the midpiece | 1 | # CELLS RESPONDED (mouse spermatids; [20]): 7; # CELLS RESPONDED (mouse spermatids; [17]): 1; # CELLS RESPONDED (mouse spermatids; spermatids, response profile 8, total 29 cells): 4; calcium response of individual cell (epididymal sperm cells; [21]): responded weakly; # CELLS RESPONDED (epididymal sperm cells; [22]): 1; # CELLS RESPONDED (epididymal sperm cells; [19]): 1 |
| CCN(CC)CCNC(=O)c1ccc(N)cc1 [procainamide] | – | – | – | – | – | – | – | – | – | – | – | – | – | – | – | – | detectable but much smaller | – | much larger in the acrosome than in the midpiece | – | – |
| OCc1ccccc1O[C@@H]1O[C@H](CO)[C@@H](O)[C@H](O)[C@H]1O [salicin] | unresponsive; also recorded: did not respond | – | – | – | – | – | – | about 14.3% | 4 | – | 1 | 1 | – | – | – | – | – | – | – | – | number of cells responding (mouse spermatids; spermatids): No spermatids were found to respond; frequency of responsive cells (epididymal sperm cells; FIG. 6, epididymal sperm): rare; # CELLS RESPONDED (epididymal sperm cells; response profile 13, total 49 cells): 1 |
